The values below come from US4914086A, “Method for treating African human and veterinary trypanosomiases” (priority 1987, dated 1990).

One data set has as its system Pneumocystis Carinii. The following applies: tissue culture; cited from earlier work.
The next data set can be described thus: in vivo. How it is done:
Swiss-Webster (25-30 g) mice were used throughout. In the EATRO 110 model, groups of 100 mice were infected (10^5 trypanosomes/mouse) and the infection was allowed to develop 24 hours before commencing therapy. Animals were divided into groups of 5 before treatment. Cured animals survived >30 days beyond deaths of controls. All compounds were administered by i.p. injection.

The test system of a further data set is VA-13 human cells. The following applies: cited from earlier work.
The test system of a further data set is T. B. gambiense. To be noted: cited from earlier work.
For a further data set, the system named is T. b. rhodesiense. To be noted: cited from earlier work.
The test system of a further data set is T. congolense. The following applies: cited from earlier work.
In another data set the test system is T. vivax. To be noted: multiple daily doses; Dube et al.; cited from earlier work.

Regarding `O=c1[nH]cnc2c([C@@H]3O[C@H](CO)[C@@H](O)[C@H]3O)c[nH]c12` [9-DINO, 7-beta-D-ribofuranosyl-4-oxo-3H, 5H-pyrrolo (3,2-d) pyrimidine], the activity in words result in the data set on Pneumocystis Carinii is recorded as “active”. Further, the “dose at which toxicity appeared” value in “in vivo” (mouse, in vivo) is reported as 400 mg/kg. Besides, the toxicity in words entry in the data set “in vivo” (prolonged (i.e. 1 week) dose regimens) is “no evidence of toxicity”. The “metabolism to adenine nucleotide analogs in words” value in the data set on VA-13 human cells was “not metabolized to adenine nucleotide analogs”. In addition, the metabolism in words entry in the data set on T. B. gambiense and in the data set with T. b. rhodesiense was “metabolized to 9-deaza-ATP” throughout.
Regarding `Nc1ncnc2c1ncn2[C@@H]1O[C@H](C[C@@H](N)CC[C@H](N)C(=O)O)[C@@H](O)[C@H]1O` [Sinefungin, 6,9-Diamino-1-(6-amino-9H-purin-9-yl)-1,5,6,7,8,9-hexadeoxy-beta-D-ribo-decofuranuronic acid], the “total dose to which infection responded” value in the data set on T. congolense (9 injections 2 h apart) is reported as 0.45 mg. In addition, the cure in words result with T. congolense (multiple daily doses, Dube et al.) was “cured”; with T. vivax it was “cured”.
